According to patent publication US9593149B2, “Amylin and calcitonin receptor agonist” (Novo Nordisk A/S, priority 2014, dated 2017):
Numbered stars: 1 amine (or outer) side, 2 acyl side, 3 side chain; on linkers, the order of the positions; unused ones are H or OH. Peptide text beside a SMILES is read from it. * marks the point of attachment. C20 diacid = O=C(O)CCCCCCCCCCCCCCCCCCC(=O)*; C18 diacid = O=C(O)CCCCCCCCCCCCCCCCC(=O)*; γGlu = O=C(O)[C@H](CCC(=O)[*:2])N[*:1]

Experiment: Assay (IV) determination of solubility
Type: physicochemical
Experimental: Assay (IV)—Determination of Solubility
The mimylin peptide was dissolved in water at ˜500 nmol/ml and mixed 1:1 with a series of buffers (100 mM glycylglycine pH 3.0, 100 mM glycylglycine pH 4.0, 100 mM glycylglycine pH 5.0, 100 mM bistrispropane pH 6.0, 100 mM bistrispropane pH 6.5, 100 mM bistrispropane pH 7.0, 100 mM bistrispropane pH 7.5, 100 mM bistrispropane pH 8.0).

| SMILES | Solubility (pH 3.0) | Solubility (pH 4.0) | Solubility (pH 5.0) | Solubility (pH 6.0) | Solubility (pH 6.5) | Solubility (pH 7.0) | Solubility (pH 7.5) | Solubility (pH 8.0) |
| --- | --- | --- | --- | --- | --- | --- | --- | --- |
| CC(C)C[C@H](NC(=O)[C@H](C)NC(=O)[C@H](C)NC(=O)[C@@H](NC(=O)[C@H](CO)NC(=O)[C@H](CC(C)C)NC(=O)[C@H](CCC(=O)O)NC(=O)[C@H](CO)NC(=O)[C@H](C)NC(=O)CC[C@H](NC(=O)CCCCCCCCCCCCCCCCCCC(=O)O)C(=O)O)[C@@H](C)O)C(=O)NCC(=O)N[C@@H](CCCNC(=N)N)C(=O)N[C@@H](CC(C)C)C(=O)N[C@@H](CO)C(=O)N[C@@H](C)C(=O)N[C@@H](CCC(=O)O)C(=O)N[C@@H](CC(C)C)C(=O)N[C@@H](Cc1cnc[nH]1)C(=O)N[C@@H](CCC(=O)O)C(=O)N[C@@H](CC(C)C)C(=O)N[C@@H](C)C(=O)N[C@H](C(=O)N[C@@H](CC(C)C)C(=O)N1CCC[C@H]1C(=O)N[C@@H](CCCNC(=N)N)C(=O)N[C@H](C(=O)N[C@@H](CCC(=O)O)C(=O)N[C@H](C(=O)NCC(=O)N[C@@H](CO)C(=O)NCC(=O)N[C@@H](CO)C(=O)NCC(N)=O)[C@@H](C)O)[C@@H](C)O)[C@@H](C)O [compound 64, [N-terminal(C20 diacid-gGlu), des1, 30S, 31G, 33G]mimylin] ({C20 diacid-γGlu}-ASELSTAALGRLSAELHELATLPRTETGSGSG-NH2) | ≧200 μM | ≧200 μM | ≧200 μM | ≧200 μM | ≧200 μM | ≧200 μM | ≧200 μM | ≧200 μM |
| CC(C)C[C@H](NC(=O)[C@H](C)NC(=O)[C@H](C)NC(=O)[C@@H](NC(=O)[C@H](CO)NC(=O)[C@H](CC(C)C)NC(=O)[C@H](CCC(=O)O)NC(=O)[C@H](CO)NC(=O)[C@H](C)NC(=O)CC[C@H](NC(=O)CCCCCCCCCCCCCCCCCCC(=O)O)C(=O)O)[C@@H](C)O)C(=O)NCC(=O)N[C@@H](CCCNC(=N)N)C(=O)N[C@@H](CC(C)C)C(=O)N[C@@H](CO)C(=O)N[C@@H](C)C(=O)N[C@@H](CCC(=O)O)C(=O)N[C@@H](CC(C)C)C(=O)N[C@@H](Cc1cnc[nH]1)C(=O)N[C@@H](CCC(=O)O)C(=O)N[C@@H](CC(C)C)C(=O)N[C@@H](C)C(=O)N[C@H](C(=O)N[C@@H](CC(C)C)C(=O)N1CCC[C@H]1C(=O)N[C@@H](CCCNC(=N)N)C(=O)N[C@H](C(=O)N[C@@H](CCC(=O)O)C(=O)N[C@H](C(=O)NCC(=O)N[C@@H](CO)C(=O)NCC(=O)N[C@@H](CO)C(=O)N[C@@H](C)C(N)=O)[C@@H](C)O)[C@@H](C)O)[C@@H](C)O [compound 65, [N-terminal(C20 diacid-gGlu), des1, 30S, 31G, 33A]mimylin] ({C20 diacid-γGlu}-ASELSTAALGRLSAELHELATLPRTETGSGSA-NH2) | ≧200 μM | ≧200 μM | ≧200 μM | ≧200 μM | ≧200 μM | ≧200 μM | ≧200 μM | ≧200 μM |
| CC(C)C[C@H](NC(=O)[C@H](C)NC(=O)[C@H](C)NC(=O)[C@@H](NC(=O)[C@H](CO)NC(=O)[C@H](CC(C)C)NC(=O)[C@H](CCC(=O)O)NC(=O)[C@H](CO)NC(=O)[C@H](C)NC(=O)CC[C@H](NC(=O)CCCCCCCCCCCCCCCCCCC(=O)O)C(=O)O)[C@@H](C)O)C(=O)NCC(=O)N[C@@H](CCCNC(=N)N)C(=O)N[C@@H](CC(C)C)C(=O)N[C@@H](CO)C(=O)N[C@@H](CCC(=O)O)C(=O)N[C@@H](CCC(=O)O)C(=O)N[C@@H](CC(C)C)C(=O)N[C@@H](Cc1cnc[nH]1)C(=O)N[C@@H](CCC(=O)O)C(=O)N[C@@H](CC(C)C)C(=O)N[C@@H](C)C(=O)N[C@H](C(=O)N[C@@H](CC(C)C)C(=O)N1CCC[C@H]1C(=O)N[C@@H](CCCNC(=N)N)C(=O)N[C@H](C(=O)N[C@@H](CCC(=O)O)C(=O)N[C@H](C(=O)NCC(=O)N[C@@H](CO)C(=O)NCC(=O)N[C@@H](CO)C(=O)N1CCC[C@H]1C(N)=O)[C@@H](C)O)[C@@H](C)O)[C@@H](C)O [compound 66, [N-terminal(C20 diacid-gGlu), des1, 15E, 30S, 31G]mimylin] ({C20 diacid-γGlu}-ASELSTAALGRLSEELHELATLPRTETGSGSP-NH2) | ≧200 μM | ≧200 μM | ≧200 μM | ≧200 μM | ≧200 μM | ≧200 μM | ≧200 μM | ≧200 μM |

The next lines start with the values.

| Solubility (pH 3.0) | Solubility (pH 4.0) | Solubility (pH 5.0) | Solubility (pH 6.0) | Solubility (pH 6.5) | Solubility (pH 7.0) | Solubility (pH 7.5) | Solubility (pH 8.0) | SMILES |
| --- | --- | --- | --- | --- | --- | --- | --- | --- |
| ≧200 μM | ≧200 μM | ≧200 μM | ≧200 μM | ≧200 μM | ≧200 μM | ≧200 μM | ≧200 μM | CC(C)C[C@H](NC(=O)[C@H](C)NC(=O)[C@H](C)NC(=O)[C@@H](NC(=O)[C@H](CO)NC(=O)[C@H](CC(C)C)NC(=O)[C@H](CCC(=O)O)NC(=O)[C@H](CO)NC(=O)[C@H](C)NC(=O)CC[C@H](NC(=O)CCCCCCCCCCCCCCCCCCC(=O)O)C(=O)O)[C@@H](C)O)C(=O)NCC(=O)N[C@@H](CCCNC(=N)N)C(=O)N[C@@H](CC(C)C)C(=O)N[C@@H](CO)C(=O)N[C@@H](C)C(=O)N[C@@H](CCC(=O)O)C(=O)N[C@@H](CC(C)C)C(=O)N[C@@H](Cc1cnc[nH]1)C(=O)N[C@@H](CCC(=O)O)C(=O)N[C@@H](CC(C)C)C(=O)N[C@@H](C)C(=O)N[C@H](C(=O)N[C@@H](CC(C)C)C(=O)N1CCC[C@H]1C(=O)N[C@@H](Cc1cnc[nH]1)C(=O)N[C@H](C(=O)N[C@@H](CCC(=O)O)C(=O)N[C@H](C(=O)NCC(=O)N[C@@H](CO)C(=O)NCC(=O)N[C@@H](CO)C(=O)N1CCC[C@H]1C(N)=O)[C@@H](C)O)[C@@H](C)O)[C@@H](C)O [compound 73, [N-terminal(C20 diacid-gGlu), des1, 25H, 30S, 31G]mimylin] ({C20 diacid-γGlu}-ASELSTAALGRLSAELHELATLPHTETGSGSP-NH2) |
| ≧200 μM | ≧200 μM | ≧200 μM | ≧200 μM | ≧200 μM | ≧200 μM | ≧200 μM | ≧200 μM | CC(C)C[C@H](NC(=O)[C@H](C)NC(=O)[C@H](C)NC(=O)[C@@H](NC(=O)[C@H](CO)NC(=O)[C@H](CC(C)C)NC(=O)[C@H](CCC(=O)O)NC(=O)[C@H](CO)NC(=O)[C@H](C)NC(=O)CC[C@H](NC(=O)CCCCCCCCCCCCCCCCCCC(=O)O)C(=O)O)[C@@H](C)O)C(=O)NCC(=O)N[C@@H](CCCNC(=N)N)C(=O)N[C@@H](CC(C)C)C(=O)N[C@@H](CO)C(=O)N[C@@H](C)C(=O)N[C@@H](CCC(=O)O)C(=O)N[C@@H](CC(C)C)C(=O)N[C@@H](Cc1cnc[nH]1)C(=O)N[C@@H](CCC(=O)O)C(=O)N[C@@H](CC(C)C)C(=O)N[C@@H](C)C(=O)N[C@H](C(=O)N[C@@H](CC(C)C)C(=O)N1CCC[C@H]1C(=O)N[C@@H](CCCNC(=N)N)C(=O)N[C@H](C(=O)N[C@@H](CCC(=O)O)C(=O)N[C@H](C(=O)NCC(=O)N[C@H](C(=O)NCC(=O)N[C@H](C(=O)N1CCC[C@H]1C(N)=O)[C@@H](C)O)[C@@H](C)O)[C@@H](C)O)[C@@H](C)O)[C@@H](C)O [compound 74, [N-terminal(C20 diacid-gGlu), des1, 30T, 31G, 32T]mimylin] ({C20 diacid-γGlu}-ASELSTAALGRLSAELHELATLPRTETGTGTP-NH2) |
| ≧200 μM | ≧200 μM | ≧200 μM | ≧200 μM | ≧200 μM | ≧200 μM | ≧200 μM | ≧200 μM | CC(C)C[C@H](NC(=O)[C@H](C)NC(=O)[C@H](C)NC(=O)[C@@H](NC(=O)[C@H](CO)NC(=O)[C@H](CC(C)C)NC(=O)[C@H](CCC(=O)O)NC(=O)[C@H](CO)NC(=O)[C@H](C)NC(=O)CC[C@H](NC(=O)CCCCCCCCCCCCCCCCC(=O)O)C(=O)O)[C@@H](C)O)C(=O)NCC(=O)N[C@@H](CCCNC(=N)N)C(=O)N[C@@H](CC(C)C)C(=O)N[C@@H](CO)C(=O)N[C@@H](C)C(=O)N[C@@H](CCC(=O)O)C(=O)N[C@@H](CC(C)C)C(=O)N[C@@H](Cc1cnc[nH]1)C(=O)N[C@@H](CCC(=O)O)C(=O)N[C@@H](CC(C)C)C(=O)N[C@@H](C)C(=O)N[C@H](C(=O)N[C@@H](CC(C)C)C(=O)N1CCC[C@H]1C(=O)N[C@@H](CCCNC(=N)N)C(=O)N[C@H](C(=O)N[C@@H](CCC(=O)O)C(=O)N[C@H](C(=O)NCC(=O)N[C@@H](CO)C(=O)NCC(=O)N1CCC[C@H]1C(=O)N1CCC[C@H]1C(N)=O)[C@@H](C)O)[C@@H](C)O)[C@@H](C)O [compound 75, [N-terminal(C18 diacid-gGlu), des1, 30S, 31G, 32P]mimylin] ({C18 diacid-γGlu}-ASELSTAALGRLSAELHELATLPRTETGSGPP-NH2) |
| ≧200 μM | ≧200 μM | ≧200 μM | ≧200 μM | ≧200 μM | ≧200 μM | ≧200 μM | ≧200 μM | CC(C)C[C@H](NC(=O)[C@H](CCC(=O)O)NC(=O)[C@H](Cc1cnc[nH]1)NC(=O)[C@H](CC(C)C)NC(=O)[C@H](CCC(=O)O)NC(=O)[C@H](C)NC(=O)[C@H](CO)NC(=O)[C@H](CC(C)C)NC(=O)[C@H](CCCNC(=N)N)NC(=O)CNC(=O)[C@H](CC(C)C)NC(=O)[C@@H](NC(=O)[C@H](C)NC(=O)[C@@H](NC(=O)[C@H](CO)NC(=O)[C@H](CC(C)C)NC(=O)[C@H](CCC(=O)O)NC(=O)[C@H](CO)NC(=O)[C@H](C)NC(=O)CC[C@H](NC(=O)CCCCCCCCCCCCCCCCC(=O)O)C(=O)O)[C@@H](C)O)C(C)C)C(=O)N[C@@H](C)C(=O)N[C@H](C(=O)N[C@@H](CC(C)C)C(=O)N1CCC[C@H]1C(=O)N[C@@H](CCCNC(=N)N)C(=O)N[C@H](C(=O)N[C@@H](CCC(=O)O)C(=O)N[C@H](C(=O)NCC(=O)N[C@@H](CO)C(=O)NCC(=O)N[C@@H](CO)C(=O)N1CCC[C@H]1C(N)=O)[C@@H](C)O)[C@@H](C)O)[C@@H](C)O [compound 76, [N-terminal(C18 diacid-gGlu), des1, 9V, 30S, 31G]mimylin] ({C18 diacid-γGlu}-ASELSTAVLGRLSAELHELATLPRTETGSGSP-NH2) |
